Results published in PMC9323422 (Angewandte Chemie (International Ed. in English), 2022).

Experiments:
Recombinant human PTP1B = target: T1, Recombinant human PTP1B (Homo sapiens, UniProt P18031); assay type: biochemical
T1 sequence (P18031 1-435): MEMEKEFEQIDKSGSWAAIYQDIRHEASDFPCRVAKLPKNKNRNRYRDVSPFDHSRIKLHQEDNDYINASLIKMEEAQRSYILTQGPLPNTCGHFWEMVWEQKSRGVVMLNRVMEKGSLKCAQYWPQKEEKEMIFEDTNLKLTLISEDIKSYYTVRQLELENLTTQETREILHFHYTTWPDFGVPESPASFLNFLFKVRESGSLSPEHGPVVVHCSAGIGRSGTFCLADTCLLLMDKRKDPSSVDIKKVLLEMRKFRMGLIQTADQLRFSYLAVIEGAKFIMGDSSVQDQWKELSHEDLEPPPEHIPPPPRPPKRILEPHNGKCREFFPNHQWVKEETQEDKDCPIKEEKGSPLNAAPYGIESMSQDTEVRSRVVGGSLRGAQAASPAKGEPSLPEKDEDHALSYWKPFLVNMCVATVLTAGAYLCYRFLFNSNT

Irradiation experiment = assay type: physicochemical; details: 365 nm, 2 h, room temperature, isopropanol/water (70 : 30)
[1] = pH 2
[2] = Determination of partition coefficients DCM/water; assay type: physicochemical; details: 24 h, room temperature
PTP1B = details: cited from earlier work

| Structure (SMILES) | Ki (Recombinant human PTP1B) [µM] | increase of affinity to PTP1B relative to phosphonate amino acid 1 (Recombinant human PTP1B) [fold] | photostability on irradiation (Irradiation experiment) | stability of the pentafluorophosphate anion [1] | Percent compound in DCM (organic phase) [2] [%] | affinity, inhibition of PTP1B phosphatase activity (PTP1B) |
| --- | --- | --- | --- | --- | --- | --- |
| NC(Cc1ccc(C(=O)[P-](F)(F)(F)(F)F)cc1)C(=O)O (stereo not drawn) [Compound 12, 4‐(pentafluorophosphato‐carbonyl)‐phenylalanine] | 52 ± 7 | 30 | photoconversion of the PF5 residue | – | – | – |
| NC(Cc1ccc(C(F)(F)[P-](F)(F)(F)(F)F)cc1)C(=O)O (stereo not drawn) [Compound 3, 4‐pentafluoro‐phosphato‐difluoromethyl‐phenylalanine] | 61 ± 8 | 25 | – | stable | – | – |
| CNC(=O)C(Cc1ccc(C(F)(F)[P-](F)(F)(F)(F)F)cc1)NC(C)=O (stereo not drawn) [Compound 10] | – | – | – | – | 16 | – |
| FC(F)(c1ccccc1)[P-](F)(F)(F)(F)F [Compound 2] | – | – | – | – | 37 | low, millimolar affinity |
